According to patent US11540539B2, “Reduced sodium food products” (GENERAL MILLS, INC., priority 2013, dated 2023):

Experiments:
perception of saltiness [1] = test: Broth DAP test: trained panel rates saltiness of compounds in simple broth; type: in vivo; conditions: individual compounds in simple broth; DAP score greater than 7.6 indicates saltiness or salt enhancement
Method: (§1) Briefly, each individual tested compound was placed in water and in sodium solution to test saltiness and saltiness enhancement potential. Tests in water were executed in a compound concentration of 10 ppm. Tests in sodium solution were executed in compound concentrations of 0.1, 1 and 10 ppm. Two control sodium solutions with known organoleptic salt intensities were provided as references for each test. The test for individual compounds was also conducted using simple broth instead of sodium solution. A number of compound combinations identified from the Na-solution DAP test were used for the broth DAP test. Tests were executed with a trained panel of 9-12 assessors. For Na-solution DAP tests, a DAP score of greater than 3.1 indicates saltiness or salt enhancement. The DAP score can be correlated with a sodium reduction potential by subtracting 3.1 from the DAP score.

perception of saltiness [2] = test: Na-solution DAP test: trained panel rates saltiness of compounds in sodium solution; type: in vivo; conditions: individual compounds in sodium solution; compound concentrations of 0.1, 1 and 10 ppm; DAP score greater than 3.1 indicates saltiness or salt enhancement
Method: as §1

## COc1cc(CCC(O)CC(=O)CCc2ccccc2)ccc1O (stereo not drawn) [Compound 12]
Perception of saltiness [1]
  DAP in Broth: 7.6

## O=C(/C=C/C=C/c1ccc2c(c1)OCO2)N1CCCCC1 [Compound 18]
Perception of saltiness [1]
  DAP in Broth: 8.1

## CC(C)(O)C(O)COc1c2ccoc2cc2oc(=O)ccc12 (stereo not drawn) [Compound 63]
Perception of saltiness [1]
  DAP in Broth: 8.0

## CC1CCC2(OC1)OC1CC3C4CCC5CC(OC6OC(CO)C(OC7OC(CO)C(O)C(OC8OC(CO)C(O)C(OC9OCC(O)C(O)C9O)C8O)C7O)C(OC7OCC(O)C(O)C7O)C6O)CCC5(C)C4CC(=O)C3(C)C1C2C (stereo not drawn) [Compound 37]
Perception of saltiness [1]
  DAP in Broth: 8.1
Perception of saltiness [2]
  DAP in Na-Sol.: 3.7

## COC1CC(OC2CCC3(C=O)C(CCC4C3CCC3(C)C(C5=CC(=O)OC5)CCC43O)C2)OC(C)C1OC1OC(CO)C(O)C(O)C1O (stereo not drawn) [Compound 76]
Perception of saltiness [1]
  DAP in Broth: 8.0
Perception of saltiness [2]
  DAP in Na-Sol.: 3.2

## COc1cc(C2c3cc4c(cc3CC3COC(=O)C32)OCO4)cc(OC)c1OC (stereo not drawn) [Compound 59]
Perception of saltiness [1]
  DAP in Broth: 7.9
Perception of saltiness [2]
  DAP in Na-Sol.: 3.3

## COc1c2ccoc2c(OCC=C(C)C)c2oc(=O)ccc12 [Compound 65]
Perception of saltiness [1]
  DAP in Broth: 7.9
Perception of saltiness [2]
  DAP in Na-Sol.: 3.3

## C/C=C1\C(=O)CC2C3CCC4=CC(=O)CCC4(C)C3CCC12C (stereo not drawn) [Compound 75]
Perception of saltiness [2]
  DAP in Na-Sol.: 3.6

## C=CCCCCCCC(C(=O)O)C(O)CC(=O)O (stereo not drawn) [Compound 81]
Perception of saltiness [1]
  DAP in Broth: 7.8
Perception of saltiness [2]
  DAP in Na-Sol.: 3.2

## COC1CC(OC2CCC3(C=O)C(CCC4C3CCC3(C)C(C5=CC(=O)OC5)CCC43O)C2)OC(C)C1O (stereo not drawn) [Compound 77]
Perception of saltiness [1]
  DAP in Broth: 8.1
Perception of saltiness [2]
  DAP in Na-Sol.: 3.4

## C=CC(C)(O)CC/C=C(\C)C(=O)OC1C(OCC2OC(OC(=O)C34CCC(C)(C)CC3C3=CCC5C6(C)CCC(OC7OC(COC8OCC(O)C(O)C8OC8OCC(O)C(O)C8O)C(O)C(O)C7O)C(C)(C)C6CCC5(C)C3(C)CC4O)C(OC3OC(C)C(OC4OCC(O)C(OC5OCC(O)C(O)C5O)C4O)C(O)C3O)C(OC(=O)/C(C)=C/CCC(C)(O)C=C)C2O)OC(C)C(O)C1O (stereo not drawn) [Compound 35]
Perception of saltiness [1]
  DAP in Broth: 8.1
Perception of saltiness [2]
  DAP in Na-Sol.: 3.7

## CCCCCCCCCCC[C@@H](O)CC(=O)CCc1ccc(O)c(OC)c1 [Compound 1]
Perception of saltiness [1]
  DAP in Broth: 7.8

## CCC/C=C\C/C=C\CCCC/C=C\Cc1cc(O)cc(O)c1 [Compound 10]
Perception of saltiness [1]
  DAP in Broth: 7.9

## CC/C=C\C=C\C(O)C/C=C\CCCCCCCC(=O)O (stereo not drawn) [Compound 86]
Perception of saltiness [1]
  DAP in Broth: 8.0
Perception of saltiness [2]
  DAP in Na-Sol.: 3.9

## CC/C=C\C/C=C\C=C\[C@H](O)CCCCCCCC(=O)O [Compound 85]
Perception of saltiness [2]
  DAP in Na-Sol.: 2.9

## COc1cc2c(c(OC)c1OC)-c1c(cc3c(c1OC)OCO3)CC(C)C(C)C2 (stereo not drawn) [Compound 46]
Perception of saltiness [1]
  DAP in Broth: 7.8

## CCCCCCCCCCNC(C)=O [Compound 84]
Perception of saltiness [1]
  DAP in Broth: 8.1
Perception of saltiness [2]
  DAP in Na-Sol.: 3.8

## CCCCCCCC/C=C/C(O)CCCCCCC(=O)OCC(O)CO (stereo not drawn) [Compound 87]
Perception of saltiness [1]
  DAP in Broth: 8.0

## CC(C)=CCOc1c2occc2cc2ccc(=O)oc12 [Compound 64]
Perception of saltiness [1]
  DAP in Broth: 7.8
Perception of saltiness [2]
  DAP in Na-Sol.: 3.7

## C=CC(C)(O)CCC1(C)C2=C(C(OC(C)=O)C(OC(C)=O)C1C)C(C)(C)CCC2 (stereo not drawn) [Compound 29]
Perception of saltiness [1]
  DAP in Broth: 8.0

## COc1cc2c(c(OC)c1OC)-c1c(cc3c(c1OC)OCO3)C[C@H](C)[C@@](C)(O)C2 [Compound 44]
Perception of saltiness [1]
  DAP in Broth: 8.6
Perception of saltiness [2]
  DAP in Na-Sol.: 3.8

## CC(=O)OC1CCC2(C)C(COc3ccc4ccc(=O)oc4c3)C(C)(O)CCC2C1(C)C (stereo not drawn) [Compound 66]
Perception of saltiness [1]
  DAP in Broth: 7.8
Perception of saltiness [2]
  DAP in Na-Sol.: 3.2

## CC(=O)O[C@@H]1CC2C(C)(C)C(=O)C=C[C@]2(C)C2CC[C@]3(C)C(=CC(=O)C3c3ccoc3)[C@@]21C (stereo partly drawn) [Compound 74]
Perception of saltiness [1]
  DAP in Broth: 7.7
Perception of saltiness [2]
  DAP in Na-Sol.: 3.2

## COc1c2ccoc2cc2oc(=O)ccc12 [Compound 62]
Perception of saltiness [1]
  DAP in Broth: 78.0
Perception of saltiness [2]
  DAP in Na-Sol.: 3.9

## C[C@]12CC[C@H](O)C[C@H]1CC[C@@H]1[C@@H]2CC[C@]2(C)[C@@H](C3=CC(=O)OC3)CC[C@]12O [Compound 73]
Perception of saltiness [1]
  DAP in Broth: 8.0
Perception of saltiness [2]
  DAP in Na-Sol.: 3.5

## C[C@H]1[C@H](C)CC[C@]2(C(=O)O)CC[C@]3(C)C(=CC[C@@H]4[C@@]5(C)CC[C@H](O)C(C)(C)[C@@H]5CC[C@]43C)[C@H]12 [Compound 43]
Perception of saltiness [1]
  DAP in Broth: 8.0

## C=CCCCCCCCCCCC[C@H](O)C[C@H](O)CO [Compound 82]
Perception of saltiness [1]
  DAP in Broth: 8.3
Perception of saltiness [2]
  DAP in Na-Sol.: 3.8

## CC(=O)OC1C(O)COC(OC2C(O)C(C)OC(OC(C)(CCC=C(C)C)C3C(O)CC4(C)C3CCC3C5(C)CCC(OC6OCC(O)C(O)C6O)C(C)(C)C5CCC34C)C2O)C1O (stereo not drawn) [Compound 38]
Perception of saltiness [1]
  DAP in Broth: 8.1
Perception of saltiness [2]
  DAP in Na-Sol.: 3.9

## CCCCC/C=C\CCCCCCc1cc(=O)c2ccccc2n1C [Compound 16]
Perception of saltiness [1]
  DAP in Broth: 8.0

## CCCCCC(CC(CCc1ccc(O)c(OC)c1)OC(C)=O)OC(C)=O (stereo not drawn) [Compound 3]
Perception of saltiness [1]
  DAP in Broth: 8.8

## CCCCC/C=C/C=C/C(O)CCCCCCCC(=O)O (stereo not drawn) [Compound 88]
Perception of saltiness [1]
  DAP in Broth: 8.0

## C=C[C@@]1(C)CC(=O)C2[C@]3(C)C(C[C@@H](O)[C@@]2(O)C1=O)C(C)(C)[C@H](OC(C)=O)[C@H](OC(C)=O)[C@@H]3OC(=O)c1ccccc1 (stereo partly drawn) [Compound 32]
Perception of saltiness [1]
  DAP in Broth: 8.1

## CC(C)C(=O)c1c2c(c3oc(=O)cc(-c4ccccc4)c3c1O)CC(C(C)(C)O)O2 (stereo not drawn) [Compound 60]
Perception of saltiness [1]
  DAP in Broth: 8.1
Perception of saltiness [2]
  DAP in Na-Sol.: 3.8

## COc1cc(CC(C)C(C)Cc2ccc(O)c(OC)c2)ccc1O (stereo not drawn) [Compound 49]
Perception of saltiness [1]
  DAP in Broth: 8.2

## COc1cc2c(c(OC)c1OC)-c1c(cc(OC)c(OC)c1OC)C[C@H](C)[C@H](C)C2 [Compound 45]
Perception of saltiness [1]
  DAP in Broth: 8.2

## COc1cc(CNC(=O)CCCCCCC(C)C)ccc1O [Compound 21]
Perception of saltiness [2]
  DAP in Na-Sol.: 4

## CC(C)CNC(=O)/C=C/C=C/CCCCCC/C=C/c1ccc2c(c1)OCO2 [Compound 15]
Perception of saltiness [1]
  DAP in Broth: 8.1
Perception of saltiness [2]
  DAP in Na-Sol.: 3.5

## COc1cc(COC(=O)CCCC/C=C/C(C)C)ccc1O [Compound 13]
Perception of saltiness [1]
  DAP in Broth: 7.9

## C/C=C(\C)C(=O)O[C@H]1[C@H](O)[C@]2(CO)[C@H](O)C[C@]3(C)C(=CCC4[C@@]5(C)CC[C@H](O[C@@H]6O[C@H](C(=O)O)[C@@H](O[C@@H]7O[C@H](CO)[C@@H](O)[C@H](O)[C@H]7O)[C@H](O)[C@H]6O[C@@H]6O[C@H](CO)[C@@H](O)[C@H](O)[C@H]6O)[C@](C)(CO)C5CC[C@]43C)[C@@H]2CC1(C)C (stereo partly drawn) [Compound 34]
Perception of saltiness [1]
  DAP in Broth: 7.7

## COc1cc(CC/C=C/C(=O)CCc2ccccc2)ccc1O [Compound 11]
Perception of saltiness [1]
  DAP in Broth: 8.1

## CC1(C)CC[C@]2(C(=O)O)CC[C@]3(C)C(=CCC4[C@@]5(C)C[C@@H](O)[C@H](O)C(C)(C)C5CC[C@]43C)C2C1 (stereo partly drawn) [Compound 42]
Perception of saltiness [1]
  DAP in Broth: 8.1
Perception of saltiness [2]
  DAP in Na-Sol.: 3.1

## CCCCCCCCC/C=C/C(=O)CCc1ccc(O)c(OC)c1 [Compound 2]
Perception of saltiness [1]
  DAP in Broth: 7.8

## COc1cc2oc(=O)ccc2c(OC)c1CC=C(C)C [Compound 28]
Perception of saltiness [2]
  DAP in Na-Sol.: 3.6

## C=CCCCCCCCCCCCC(CC(O)COC(C)=O)OC(C)=O (stereo not drawn) [Compound 83]
Perception of saltiness [1]
  DAP in Broth: 8.1
Perception of saltiness [2]
  DAP in Na-Sol.: 4.2

## COc1cc(O)c(C(C)=O)c(OC)c1 [Compound 53]
Perception of saltiness [1]
  DAP in Broth: 8.5
